Data reported in US4618605A, “Process for the production of β-elemonic acid and pharmaceutical preparations containing said acid” (priority 1983, dated 1986).
Read-outs that look alike come from different tables or passages of the source.

Experiments:
stomach mucosa = assay: induction of stomach ulcers (acute stomach mucous tolerability); format: in vivo, Wistar rats; settings: for Threshold dose Acute stomach mucous tolerability: p.o.; for Effect (ulcer induction): single administration, after 3.5 hours
Description: The most frequent side effect in known anti-rheumatics is poor gastrointestinal tolerance with ulcer induction. For this reason β-elemonic acid was examined for the induction of ulcers. The determination of ulcer formation was made according to W. J. R. Whittle, Brit. J. Pharmacology, 1975, Vol. 55, pp. 242-243; L. Mariani, Europ. J. Toxicol. Eviron., 1975, Vol. 8, pp. 335-39; and R. Menguy and L. Desbaillets, Proc. Soc. Bio., Vol. 125, p. 1108. In the tests, for each dose and control ten male Wistar rats (120-150 g, kept fasting for 16 hours) were used. The provocation of bleeding stomach ulcer took place by oral application of the active ingredient. The animals were sacrificed after 3.5 hours, the stomach removed, opened along the larger curvature and stretched on a foam polystyrene plate. The median ulcer factor of the test group and the control group was determined.

[1] = therapeutic range (therapeutic indices); format: in vivo; settings: for selectivity ratio: in vivo, po
Description: An assessment of the effectiveness of elemonic acid was compared with known substances. A quantitative assessment of β-elemonic acid in comparison with known antiphlogistic substances was made possible by determining the therapeutic ranges, i.e. by the safety with which an active ingredient can be used. […] The therapeutic range is given (1) by the ratio between the LD50 and the ED30 in the CVF paw oedema and (2) by the ratio between the dose threshold value of stomach intolerance and the ED50 in the arthritis model. The ED30 and the ED50 values were determined with the aid of a regression line: […]

adjuvant arthritis [2] = assay: adjuvant arthritis test of Pearson, prophylactic application; format: in vivo, Wistar rats; settings: for ED50: Rattus norvegicus, po, 408 h, read-out: ED50 Adjuvant arthritis prophyl.; for antiphlogistic activity (in words): appraisal from ED50 values in the arthritis test; for inhibition values (%): prophylactic
Description: 3. The adjuvant arthritis test of C. M. Pearson, Proc. Soc. Exp. Biol. 91, 95-101 (1956) was carried out as a further relevant animal experiment for the examination of anti-rheumatic substances.
(§1) Ten Wistar rats weighing from 120-150 g were used for each dose. The same number of animals served as a control. Arthritis was induced with 0.5 ml Freud's adjuvant, by subplantar injection. The test lasted 17 days. At the beginning of the test the paw volume of the non-injected hind paw was determined and this was used as a starting value. Further volume measurements were carried out on the 14th and 17th days of the test. For the result the difference between the starting and finishing volumes of the paw, both of the test group and of the control group, was obtained and the inhibition expressed as a percentage. With daily administration from the time of induction of arthritis onwards (prophylactic application) the following inhibition values (%) were obtained: […]

[3] = acute peroral toxicity in the mouse; settings: in vivo
Description: Determination of toxicity of β-elemonic acid was carried out on the mouse and the rat. Acute peroral toxicity in the mouse: 4.640 mg/kg.

CVF paw edema = assay: rat paw edema induced by cobra venom factor (CVF); format: in vivo; settings: for ED30: Rattus norvegicus, po, 3 h, read-out: ED30 CVF edema; for Inhibition effect (%): rat, after three hours, vs control group
Description: 2. As a further experiment for testing the antiphlogistic effectiveness there was used rat paw edema induced by means of cobra venom factor (CVF). Since CVF produces inflammation by way of activation of the complementary system, inhibiting substances could open up a new kind of working principle for application in inflammatory illnesses.
Edema was provoked by subplantar injection of CVF (10 units in 1 ml NaCl solution 0.9%) in an amount of 0.1 ml of solution per paw, into one hind paw of each of a number of rats weighing from 120-160 g. After administration of the test substance in a volume of 10 ml/kg body weight the volume of the paw was determined in an overflow device. After three hours the final value was determined. For each dose the test was carried out with five test and five control animals of one sex, and repeated with the same number of animals of the opposite sex. The result was expressed as percentage inhibition of the edema compared with the control group.

young rats = assay: comparative side-effect investigation with prednisolone on young rats, 8 days; format: in vivo, rat; design: key: 0: no effect; (-): weak inhibition; -: definite inhibition; ---: very strong inhibition
Description: β-Elemonic acid was compared with prednisolone for determining side-effects. Known antiphlogistic substances can cause undesired side-effects, some of which arise even at therapeutic doses. For this reason a comparative investigation of β-elemonic acid with prednisolone was undertaken (H. J. Lee, M. R. I. Soliman in Science 215 989-991, 1982). Carried out on young rats, the duration of application was 8 days. β-Elemonic acid was administered orally up to a dosage of 316 mg/kg body weight, and prednisolone intramuscularly up to a dosage of 5 mg/kg body weight.

adrenal gland = adrenal gland weights at termination of the adjuvant arthritis (17-day administration); format: in vivo, Wistar rats; settings: 17-day prophylactic administration
Description: as §1

carrageenin paw edema = assay: carrageenin rat paw edema test of Hillebrecht (antiphlogistic effectiveness); format: in vivo; settings: for Inhibiting effect (%): rat, after three hours, vs control group
Description: 1. The antiphlogistic effectiveness was determined by the rat paw edema test of Hillebrecht (J. Hillebrecht, Arzneim, Forsch. 1954, Vol. 4, p. 607). In this test, rats weighing from 120 g-160 g were given a subplantar dose of carrageenin (0.5% in 0.9% NaCl solution) in an amount of 0.1 ml of solution per paw, using one hind paw of each rat, to produce edema. After administration of the test substance, which as a rule should not exceed a volume of 10 ml/kg body weight, the volume of the paw was determined in an overflow device. After three hours the final value was determined. For each dosage level the experiment was performed with five test and five control animals of one sex and repeated with the same number of animals of the opposite sex. The result is expressed as the percentage inhibition of edema as compared with the control group.

adjuvant arthritis [4] = assay: adjuvant arthritis test, therapeutic application beginning ten days after induction; format: in vivo, Wistar rats; settings: for inhibition values (%): therapeutic
rats = assay: dose-range study on rats, daily application for 14 days; format: in vivo, rat; settings: daily for 14 days, 681.0 and 1,000.0 mg/kg body weight
[5] = LD50 / ED30 in the CVF paw oedema, read-out: Therapeutic index 1 (3./1.)
[6] = rat, dose threshold value of stomach intolerance / ED50 in the arthritis model, read-out: Therapeutic index 2 (4./1.)
[7] = po, Table 9, read-out: LD50 Mouse

SMILES: COc1ccc2c(c1)c(CC(=O)O)c(C)n2C(=O)c1ccc(Cl)cc1 [Indomethacin, reference compound]
- Threshold dose Acute stomach mucous tolerability (stomach mucosa): 5.62 mg/kg
- selectivity ratio [1, 5]: 8.73
- selectivity ratio [1, 6]: 21.6
- ED50 (adjuvant arthritis [2]): 0.26 mg/kg
- antiphlogistic activity (in words) (adjuvant arthritis [2]): strongly active
- LD50 [3, 7]: 40 mg/kg
- ED30 (CVF paw edema): 4.58 mg/kg

SMILES: C[C@]12C=CC(=O)C=C1CC[C@@H]1[C@@H]2[C@@H](O)C[C@@]2(C)[C@H]1CC[C@]2(O)C(=O)CO [Prednisolone, reference compound]
- Blood picture Leucocytes (young rats; 5 mg/kg intramuscularly): -
- Blood picture Lymphocytes (young rats; 5 mg/kg intramuscularly): -
- Body weight development (young rats; 5 mg/kg intramuscularly): -
- Liver weights (young rats; 5 mg/kg intramuscularly): 0
- Thymus weight (young rats; 5 mg/kg intramuscularly): ---
- Blood picture Leucocytes (young rats; 2,5 mg/kg intramuscularly): 0
- Blood picture Lymphocytes (young rats; 2,5 mg/kg intramuscularly): (-)
- Body weight development (young rats; 2,5 mg/kg intramuscularly): -
- Liver weights (young rats; 2,5 mg/kg intramuscularly): 0
- Thymus weight (young rats; 2,5 mg/kg intramuscularly): ---

SMILES: CC(C)=CCC[C@H](C(=O)O)[C@@H]1CC[C@]2(C)C3=C(CC[C@@]12C)[C@@]1(C)CCC(=O)C(C)(C)[C@@H]1CC3 [β-Elemonic acid, 13α, 14β, 17α, 20S,-3-Oxo-lanosta-8,24-dien-21-carboxylic acid]
- adrenal gland weights (adrenal gland): inside the normal limits
- Effect (ulcer induction) (stomach mucosa; 10 mg/kg p.o.): 0
- Effect (ulcer induction) (stomach mucosa; 100 mg/kg p.o.): 0
- Effect (ulcer induction) (stomach mucosa; 316 mg/kg p.o.): 0
- Threshold dose Acute stomach mucous tolerability (stomach mucosa): 316.00 mg/kg
- selectivity ratio [1, 5]: 1160
- selectivity ratio [1, 6]: 68
- Therapeutic indices 1 and 2 compared with comparison substances (in words) ([1]; vs phenylbutazone and indomethacin): several times higher
- Blood picture Leucocytes (young rats; 100 mg/kg orally): 0
- Blood picture Lymphocytes (young rats; 100 mg/kg orally): 0
- Body weight development (young rats; 100 mg/kg orally): (-)
- Liver weights (young rats; 100 mg/kg orally): 0
- Thymus weight (young rats; 100 mg/kg orally): 0
- Blood picture Leucocytes (young rats; 316 mg/kg orally): 0
- Blood picture Lymphocytes (young rats; 316 mg/kg orally): 0
- Body weight development (young rats; 316 mg/kg orally): (-)
- Liver weights (young rats; 316 mg/kg orally): 0
- Thymus weight (young rats; 316 mg/kg orally): (-)
- Inhibiting effect (%) (carrageenin paw edema; 1 mg/kg p.o.): -7%
- Inhibiting effect (%) (carrageenin paw edema; 10 mg/kg p.o.): -21%
- Inhibiting effect (%) (carrageenin paw edema; 100 mg/kg p.o.): -33%
- inhibition values (%) (adjuvant arthritis [4]; 14th day p.i., 1 mg/kg p.o.): +36%
- inhibition values (%) (adjuvant arthritis [4]; 14th day p.i., 10 mg/kg p.o.): -13%
- inhibition values (%) (adjuvant arthritis [4]; 14th day p.i., 100 mg/kg p.o.): -38%
- inhibition values (%) (adjuvant arthritis [4]; 17th day p.i., 1 mg/kg p.o.): -31%
- inhibition values (%) (adjuvant arthritis [4]; 17th day p.i., 10 mg/kg p.o.): -42%
- inhibition values (%) (adjuvant arthritis [4]; 17th day p.i., 100 mg/kg p.o.): -81%
- inhibition values (in words) (adjuvant arthritis [4]; therapeutic application beginning ten days after induction): pronounced inhibition values
- aggravating side-effects (rats): no occurrences of aggravating side-effects
- inhibition values (%) (adjuvant arthritis [2]; 14th day p.i., 1 mg/kg p.o.): -55%
- inhibition values (%) (adjuvant arthritis [2]; 14th day p.i., 10 mg/kg p.o.): -62%
- inhibition values (%) (adjuvant arthritis [2]; 14th day p.i., 100 mg/kg p.o.): -165%
- inhibition values (%) (adjuvant arthritis [2]; 17th day p.i., 1 mg/kg p.o.): -38%
- inhibition values (%) (adjuvant arthritis [2]; 17th day p.i., 10 mg/kg p.o.): -47%
- inhibition values (%) (adjuvant arthritis [2]; 17th day p.i., 100 mg/kg p.o.): -92%
- ED50 (adjuvant arthritis [2]): 4.64 mg/kg
- LD50 [3, 7]: 4640 mg/kg
- LD50 ([3]; po, peroral, read-out: Acute peroral toxicity): 4.64 mg/kg
- Inhibition effect (%) (CVF paw edema; 1 mg/kg p.o.): -24%
- Inhibition effect (%) (CVF paw edema; 10 mg/kg p.o.): -32%
- Inhibition effect (%) (CVF paw edema; 100 mg/kg p.o.): -49%
- ED30 (CVF paw edema): 3.98 mg/kg

SMILES: CCCCC1C(=O)N(c2ccccc2)N(c2ccccc2)C1=O [Phenylbutazone]
- Inhibiting effect (%) (carrageenin paw edema; 100 mg/kg p.o.): -41%
- reduction of edema (in words) (carrageenin paw edema; carrageenin paw edema test in rats): a reduction of edema only at a fairly high dosage level
- inhibition values (%) (adjuvant arthritis [2]; 14th day p.i., 10 mg/kg p.o.): -42%
- inhibition values (%) (adjuvant arthritis [2]; 14th day p.i., 31,6 mg/kg p.o.): -57%
- inhibition values (%) (adjuvant arthritis [2]; 14th day p.i., 82,5 mg/kg p.o.): -58%
- inhibition values (%) (adjuvant arthritis [2]; 17th day p.i., 10 mg/kg p.o.): -31%
- inhibition values (%) (adjuvant arthritis [2]; 17th day p.i., 31,6 mg/kg p.o.): -51%
- inhibition values (%) (adjuvant arthritis [2]; 17th day p.i., 82,5 mg/kg p.o.): -43%
- ED50 (adjuvant arthritis [2]; p.o., regression line): 47.5 mg/kg
- antiphlogistic activity (in words) (adjuvant arthritis [2]): weakly active
- LD50 ([3]; oral, comparison, read-out: LD50): 465 mg/kg
- Inhibition effect (%) (CVF paw edema; 1 mg/kg p.o.): +10%
- Inhibition effect (%) (CVF paw edema; 10 mg/kg p.o.): -28%
- Inhibition effect (%) (CVF paw edema; 100 mg/kg p.o.): -34%
- ED30 (CVF paw edema): 37.7 mg/kg
- inhibition of CVF edema (in words) (CVF paw edema; compared with β-elemonic acid): weaker inhibition values
